Assays:
[1] = system: GPx; assay: FSGS model: GPx activity in the kidney; type: in vivo, BALB/c mice; conditions: FSGS mice, day 7 until day 21, vs control FSGS mice
Procedure: (§1) Experiments described herein were performed on 8-week-old female BALB/c mice. The FSGS mice were injected intravenously with a single dose of adriamycin (0.1 mg/10 g body weight). The mice were given Compound 1 six hours before adriamycin injection by gavage daily till sacrifice. BALB/c mice intraperitoneal injected with normal saline were used as normal controls, while ASLN mice given vehicle (corn oil) by gavage were used as disease controls. Mice were killed at day 7, 14, or 21 after disease induction, and spleen, renal cortical tissue, and blood samples collected and stored appropriately until analysis. All animal experiments were performed with the ethical approval of the Institutional Animal Care and Use Committee of The National Defense Medical Center, Taiwan and performed according to the ethical rules in the NIH Guide for the Care and Use of Laboratory Animals.
GPx activity in renal tissues was measured using a commercial Glutathione Peroxidase Assay kit (Cayman, Mich., USA) according to the manufacturer's instructions Enzyme activity was expressed relative to the protein concentration of glomerular homogenates.

[2] = AcP-IgAN model: renal histopathology; type: in vivo, B cell-deficient mice; conditions: AcP-IgAN mice
Procedure: (§2) B cell-deficient mice (B6.129S2-Igh-6tm1Cgn/J) were obtained from the Academia Sinica (Professor John T. Kung, Institute of Molecular Biology), and maintained at the animal center of the National Defense Medical Center, Taipei, Taiwan. AcP-IgAN was induced in the mice by daily injection of purified IgA anti-phosphorylcholine antibodies and pneumococcal C-polysaccharide (PnC) as described previously (Chao, et al., Kidney Int. 70:283-297; 2006). All animal experiments were performed with the approval of the Institutional Animal Care and Use Committee of The National Defense Medical Center, Taiwan, and were consistent with the NIH Guide for the Care and Use of Laboratory Animals.
For renal histopathology, the tissues were fixed in 10% buffered formalin and embedded in paraffin, and then sections (4 μm) were prepared and stained with hematoxylin and eosin (H&E). The proportion of glomeruli showing proliferation, crescent formation, sclerosis, or peri-glomerular inflammation was counted in 50 randomly sampled glomeruli by light microscopy at the magnification of 400×.

[3] = system: glutathione peroxidase (GPx); assay: AcP-IgAN model: renal GPx; type: in vivo, B cell-deficient mice; conditions: AcP-IgAN mice
Procedure: as §2
Nuclear proteins were extracted using a nuclear extract kit (Active Motif, Japan). Phospho-NF-κB p65 and nuclear factor-erythroid-2-related factor 2 (NrF2) were measured in renal tissue nuclear protein extracts using Trans-AM ELISA assay kits (Active Motif), according to the manufacturer's instructions. Renal cytosolic protein extracts using RIPA buffer (Cell signaling). Cytosolic glutathione peroxidase (GPx) (Cayman, Mich.) and cytosolic heme oxygenase-1 (HO-1) (Enzo Life Sciences, NY) were measured using commercial ELISA kits according to the manufacturer's instructions. Both were expressed relative to the protein concentration in the lysate.

[4] = system: Nrf2; assay: FSGS model: Western blot of nuclear Nrf2 in kidney; type: in vivo, BALB/c mice; conditions: FSGS mice, day 14 to day 21, vs control FSGS mice or normal controls
Procedure: as §1
The preparation of cytoplasmic and nuclear proteins of renal tissues was extracted using the Nuclear Extract Kit (Active Motif, Tokyo, Japan) according to the manufacturer's instructions. Target proteins in the cytoplasmic and/or nuclear fractions of kidney tissue were measured by Western blot analysis using rabbit antibodies against mouse Nrf2, or p47^phox (Santa Cruz). […]

[5] = system: IL-18; assay: AcP-IgAN model: renal IL-18 mRNA and protein; type: in vivo, B cell-deficient mice; conditions: AcP-IgAN mice
Procedure: as §2
Total cortical kidney RNA was extracted with TriZOL reagents (Invitrogen) from cortical tissue of the kidney. For first-strand cDNA synthesis, 1.5 μg of total RNA was used in a single-round reverse transcriptase reaction. The reaction mixture consisted of 0.9 μl of Oligo (dT) 12 to 18 primer, 1.0 mM deoxyribonucleotide triphosphate (dNTP), 1 μl first strand buffer, 0.4 mM dithiothreitol, 80 U of RNaseout recombinant ribonuclease inhibitor, and 300 U of superscript II RNase H (Invitrogen). Real-time PCR was performed on an ABI Prism 7700 Sequence Detection System (Applied Biosystems, CA). All of the probes and primers were Assays-on-Demand Gene expression products (Applied Biosystems). […]

[6] = system: MCP-1; assay: AcP-IgAN model: serum MCP-1 ELISA; type: in vivo, B cell-deficient mice; conditions: AcP-IgAN mice, day 3 until day 28, vs control AcP-IgAN mice; only baseline levels
Procedure: as §2
Serum levels of IL-1β (eBiosceience, CA), IL-6 (eBiosceience), IL-18 (MBL, Japan), and MCP-1 (eBiosceience) were measured using commercial ELISA kits according to the manufacturer's instructions.

[7] = system: apoptosis in the kidney; assay: AcP-IgAN model: apoptosis in the kidney (TUNEL); type: in vivo, B cell-deficient mice
Procedure: as §2
For the detection of apoptosis, terminal deoxynucleotidyl transferase-mediated dUTP nick-end labeling (TUNEL) was employed. Formalin-fixed and paraffin-embedded tissue sections were stained with ApopTag plus peroxidase in situ apoptosis detection kit (Chemicon, CA) according to the manufacturer's instructions. For scoring, the cortical renal area (including glomerular and peri-glomerular areas) were examined and expressed as cells/glomerular cross-section.

[8] = day 3, vs control AcP-IgAN mice
[9] = day 28, vs control AcP-IgAN mice

With COC1=C(OC)[C@H](O)[C@H](C/C=C(\C)CC/C=C(\C)CCC=C(C)C)[C@@H](C)C1=O [Compound 1, Antroquinonol] the “GPx activity in the kidney” value [1] was “recovered GPx activity”, the renal histopathology [2, 8] was “significantly inhibited” and the “renal lesions (proliferation, crescents, sclerosis, peri-glomerular leukocyte infiltration, tubular atrophy; except glomerular immune deposits)” value [2, 9] was “substantially inhibited”. The “GPx expression levels in renal tissues” value [3, 8] was “no difference”, the “GPx expression levels in renal tissues” value [3, 9] was “significantly higher” and the “Nrf2 translocation into nuclei” value [4] was “strongly augmented”. For the same compound, the “renal mRNA expression levels of IL-18 (elevation)” value ([5]; day 3 until day 28, real-time PCR) was “greatly inhibited”, the “renal IL-18 protein production” value ([5]; only at day 28) was “significantly inhibited” and the “serum levels of MCP-1 (elevation)” value [6] was “greatly inhibited”. For the same compound, the “apoptosis in the kidney (TUNEL), increase” value ([7]; AcP-IgAN mice, day 28, vs control AcP-IgAN mice) was “greatly inhibited” and the “apoptosis in the kidney (TUNEL)” value ([7]; all the mice examined, day 3) was “inconspicuous apoptosis”.
